In patent publication US7642400B2, “Protein kinase C iota” (Mayo Foundation for Medical Education and Research, priority 2004, dated 2010):

Columns and labels:
[1] = molecular target: T1, interaction of PKCι polypeptides with PAR6 polypeptides (Homo sapiens, UniProt P41743); experiment: Secondary screen: PYN bound to plate-immobilised biotin-tagged PAR6; format: binding; conditions: for Secondary Screen: amount of PYN bound to biotin-tagged PAR6 plates
T1 construct: amino acids 1-113 or a full-length PKCι polypeptide; 6xHis; made in house
T1 sequence (P41743 10-122): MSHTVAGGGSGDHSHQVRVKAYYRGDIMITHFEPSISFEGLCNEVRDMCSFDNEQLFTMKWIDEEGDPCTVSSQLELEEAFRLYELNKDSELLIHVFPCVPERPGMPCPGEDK
Procedure: Multiple test compounds that were classified as hits in the primary screen as well as additional related compounds were evaluated in a secondary screen designed as follows. Briefly, a 96-well microtiter plate coated with streptavidin (Nunc #436014) was incubated for 2-4 hours at room temperature with 100 μl of a 20-30 μg/ml solution of biotin-tagged PAR6 (whole polypeptide) in phosphate-buffered saline containing Tween-20 (PBST). Plates were washed twice with PBST, then once with incubation buffer (50 mM Tris, pH 8.0; 135 mM NaCl; 10% glycerol; 0.002% EDTA). Incubation buffer (50 μl) was added to each well. The compounds to be tested were added (10 μl) followed by PYN (50 μl) diluted in incubation buffer to an approximate concentration of 4000-5000 relative fluorescent units per 50 μl. Plates were incubated overnight at 4° C. Plates were washed twice with incubation buffer, after which 50 μl incubation buffer was added to retain moisture in the wells. The amount of PYN bound on the plates was determined by measuring yellow fluorescence (532/526) in a Typhoon imager. Fluorescence was quantitated by Softmax Pro software.
A dose-response analysis was performed using the secondary screening assay and increasing amounts (e.g., 0, 0.1, 1, 10, 100, and […]) of gossypol, hexestrol, thimerosal, ebselen, ATG, ATM, ellagic acid, cisplatin, apomorphine, or phenylmercuric acetate.

[2] = system: Rac1 activity in A549 cells; experiment: Rac1 activity assay (affinity isolation of GTP-bound Rac1) in A549 cells; format: cell-based, human
Procedure: Rac 1 Activity Assays: Rac1 activity in A549 and H1299 cell transfectants was assessed by affinity isolation of GTP-bound Rac1 using binding domains of PAK as described previously (Sander et al., J. Cell Biol., 143(5):1385-98 (1998)). Briefly, cells were lysed in lysis buffer (50 mM Tris-HCl pH 7.5, 150 mM NaCl, 20 mM MgCl2, 5 mM EGTA, 10% glycerol, 1% Triton X-100, 1% NP-40, 25 mM NaF, 1 mM phenylmethylsulfonyl fluoride, 1 mM sodium orthovanadate, 10 μg/ml leupeptin, 10 μg/ml aprotinin) at 4° C. for 5 min. Cellular debris was removed by centrifugation at 20,000×g for 5 min, and supernatants were transferred to new tubes containing 20 μl of GST-p21-binding domain of PAK1 (PAK1-PBD) coupled to agarose beads (Upstate). An aliquot of each supernatant was reserved to determine total Rac1 and actin expression by immunoblot analysis. Following a 30-minute incubation at 4° C., the agarose beads were collected by centrifugation and washed three times in wash buffer (50 mM Tris-HCl pH 7.5, 150 mM NaCl, 20 mM MgCl2, 5 mM EGTA, 10% glycerol, 1% Triton X-100, 1% NP-40, 25 mM NaF, 1 mM phenylmethylsulfonyl fluoride, 1 mM sodium orthovanadate, 10 μg/ml leupeptin, 10 μg/ml aprotinin). Bound polypeptides were solubilized by the addition of 30 μl of SDS sample buffer, resolved by SDS-PAGE, and subjected to immunoblot analysis for Rac1. An equivalent aliquot of the total cell lysate was subjected to immunoblot analysis to determine total Rac1 expression.
Rac 1 Activity Assays: A549 cells were incubated with the indicated concentration of ATG for one hour prior to analysis. Rac1 activity in A549 cells was assessed by affinity isolation of GTP-bound Rac1 using binding domains of PAK as described elsewhere (Sander et al., J. Cell Biol., 143:1385-98 (1998)). Briefly, cells were lysed in lysis buffer (50 mM Tris-HCl pH 7.5, 150 mM NaCl, 20 mM MgCl2, 5 mM EGTA, 10% glycerol, 1% Triton X-100, 1% NP-40, 25 mM NaF, 1 mM phenylmethylsulfonyl fluoride, 1 mM sodium orthovanadate, 10 μg/ml leupeptin, and 10 μg/ml aprotinin) at 4° C. for 5 min. […]

[3] = system: A549 human lung carcinoma cells; experiment: Tumorigenicity in nude mice: A549 subcutaneous tumors; format: in vivo, mouse; conditions: 200 mg/kg body weight intraperitoneal daily, versus saline; FIG. 21
Procedure: Tumorigenicity in Nude Mice: The growth of A549 human lung carcinoma cells as established subcutaneous tumors was studied in athymic nude mice (Harlan-Sprague-Dawley, Indianapolis, Ind.) in a defined pathogen-free environment. Briefly, A549 cells were grown in F-12K Nutrient Mixture containing 10% FBS. A549 cells were harvested and resuspended in serum-containing medium. 5×10^6 cells in 100 μl of growth medium were injected subcutaneously into the flank of 4-6 week old female nude mice. Once palpable tumors were established (15 days after inoculation) animals were randomly segregated into two groups. One group received intraperitoneal injections of ATG (200 mg/kg body weight) daily; the second group received an equivalent volume of diluent control solution. Tumor size was measured daily. Tumor growth was quantified by measuring the tumors in three dimensions with calipers. Tumor volume (mm^3) was calculated using the formula: 0.5236 (L×W×H), where L represents the length of the tumor, W represents the width of the tumor, and H represents the height of the tumor. Animals were individually monitored throughout the experiment.

With `OC[C@H]1O[C@H]([S-])[C@H](O)[C@@H](O)[C@@H]1O.[Au+]` [Aurothioglucose] the “Secondary Screen” value [1] was “Confirmed”, the “Secondary Screen” value ([1]; listed as aurothioglucose) was “confirmed” and the “dose-response analysis using the secondary screening assay” value ([1]; increasing amounts, e.g. 0, 0.1, 1, 10, 100, and 100 μM) was “dose-dependent response was detected”. For the same compound, the Rac1 activity ([2]; A549 cells incubated with ATG for one hour, FIG. 19) was “decreased Rac1 activity”, the “dose dependence of Rac1 activity” value ([2]; A549 cells, less Rac1 activity as ATG concentrations increased) was “dose-dependent effect on Rac1 activity” and the “tumor growth (tumor volume)” value [3] was “less tumor growth”.
